Source: article PMC9320607, “Synthesis, Biological Evaluation and Docking Studies of Ring-Opened Analogues of Ipomoeassin F” (Molecules, 2022)
“Also recorded” adds a separate entry of the source. Like-named read-outs stand apart in the source and are kept apart here.

Key:
[1] = target: T1, Sec61-mediated protein translocation (membrane integration of Ii) (Canis lupus familiaris, UniProt P38377); assay: In vitro membrane insertion assay of Ii with ER microsomes; type: biochemical, canine; details: for inhibition of in vitro membrane integration of Ii / reduction in Ii membrane integration: 1 µM compound; for inhibition of in vitro membrane integration of Ii: versus DMSO control
T1 construct: cell-free translation system supplemented with ER microsomes derived from canine pancreas; from tissue; host or cells: canine pancreas ER microsomes (nuclease-treated); the Ii substrate was translated in vitro from T7-transcribed RNA
Excerpt: Having previously established that the principal molecular basis for the cytotoxicity of Ipom-F is its strong, yet reversible, binding to Sec61α and the resultant wide-ranging blockade of Sec61-mediated protein translocation at the ER [13], we sought evidence that this mechanism also underlies the cytotoxic effects of 1 and other open-chain analogues. […] For comparative purposes, we analyzed the effects of 2 [13] and two closed-chain compounds: Ipom-F and the diester-modified analogue 22 [11] in parallel (Figure 3A).
Following the resolution of radiolabeled proteins by SDS-PAGE (Figure 3B), we used the efficiency with which the N-terminal domain of the type II integral membrane protein Ii (short form of HLA class II histocompatibility antigen gamma chain, isoform 1) was N-glycosylated inside the ER lumen as a robust reporter for the authentic membrane integration of this model Sec61-dependent protein client (Figure 3B, right upper panel, 0Gly versus 2 Gly forms).
Linear DNA of the short form of human HLA class II histocompatibility antigen gamma chain (Ii; P04232, […], residues 17–232) or human glycophorin C (GypC; P04921) were generated by PCR and transcribed into RNA using T7 RNA polymerase (Promega). Membrane insertion assays (20 µL, 1 h at 30 °C, containing 6.5% (v/v) nuclease-treated ER microsomes (from stock with OD280 = 44/mL)), endoglycosidase Hf (New England Biolabs) treatment, sample resolution by SDS-PAGE (16% polyacrylamide gels) and gel drying were performed as previously described. Following exposure to a phosphorimaging plate for 24–72 h, radiolabeled products were visualized using a Typhoon FLA-7000 (GE Healthcare, Tokyo, Japan) and the ratio of the signal intensity for the N-glycosylated (XGly) and non-glycosylated (0Gly) forms obtained using AIDA v.5.0 (Raytest Isotopenmeβgeräte). This value was then expressed relative to the matched DMSO control (set to 100%) in order to estimate the mean relative insertion (± SEM) from insertion experiments performed in triplicate (n = 3, biologically independent experiments). IC50 value estimates were determined in Prism 8 (GraphPad, San Diego, CA, USA) using nonlinear regression to fit data to a curve of variable slope (four parameters) using the least-squares fitting method, with the top and bottom plateaus of the curve defined as 100% and 7.67% (the mean of all data at 500 µM across all compounds), respectively.

HCT116 Sec61α-WT cells = assay: Resazurin-based cell viability assay in HCT116 Sec61α-WT cells; design: species or system human; details: for cell death: 50 nM, 72 h; for IC50: Homo sapiens
Experimental: Parental (Sec61α-WT) […] All cell lines were maintained in a 5% CO2 humidified incubator at 37 °C. Cytotoxicity assays were performed in triplicate sets as previously described and viable cells were counted using an automated cell counter (Bio-Rad TC20) immediately before each experiment. Compound stock solutions in DMSO (10 mM) were diluted with supplemented culture media (MDA-MB-231 cells: high glucose DMEM; HCT116 Sec61α-WT and Sec61α-G80W cells: McCoy’s (modified) 5A) to make a series of gradient fresh working solutions at equal DMSO percentage immediately prior to each test. […] For MDA-MB-231 cells, the media were discarded and […] fresh medium containing 10% (v/v) alamarBlue HS cell viability reagent (resazurin stock solution) (ThermoFisher, Waltham, MA, USA, A50100) was added to each well. For Sec61α-WT or Sec61α-G80W HCT-116 cells, the media was not discarded and alamarBlue HS cell viability reagent (resazurin stock solution) (ThermoFisher, Waltham, MA, USA, A50100) was added to 10% (v/v). After that, all cells were incubated at 37 °C for a further 1–3 h and the emission of each well at 620 nm was detected using a Synergy H1 Hybrid multi-mode plate reader (BioTek, Agilent Technologies, Palo Alto, CA, USA) at excitation 580 nm. […] IC50 value estimates were determined using nonlinear regression to fit data to a curve of variable slope (four parameters) using the least-squares fitting method.

NCI 60-cell line = NCI 60-cell line screening; type: cell-based, human; details: for GI50: Homo sapiens, read-out: average GI50
Excerpt: (§1) To investigate the impact of ring-opening, we first submitted the open-chain analogue 1 [9] to the National Cancer Institute (NCI) 60-cell line screening (Supplementary Material S1) and determined the cytotoxicity of nine newly synthesized open-chain analogues 4–12 (Figure 2, Supplementary Materials S2 and S3) against MDA-MB-231 cells (Table S1). […] Furthermore, the majority of the nine new open-chain analogues were modestly less cytotoxic towards MDA-MB-231 cells when compared to their direct ring-closed counterparts (analogues 13–21 matching with 4–12; Figures S1 and S2 and Table S1).

MDA-MB-231 cells = assay: Resazurin-based cytotoxicity assay in MDA-MB-231 cells; type: cell-based, human; details: for IC50: Homo sapiens
Excerpt: as §1
The human breast cancer cell line (MDA-MB-231) was maintained in a DMEM high glucose culture medium supplemented with 10% (v/v) fetal bovine serum (FBS) and 2 mM L-glutamine. Parental (Sec61α-WT) HCT-116 (human colorectal cancer cells, ATCC, CCL-247) and mutant (Sec61α-G80W) HCT-116 cells were maintained in McCoy’s 5A (modified) medium ((ThermoFisher, Waltham, MA, USA, 16600-082)) supplemented with 10% (v/v) FBS (Gibco, 10500-064) and 100 units/mL penicillin and […] streptomycin (Gibco, cat: 15140-122). All cell lines were maintained in a 5% CO2 humidified incubator at 37 °C. Cytotoxicity assays were performed in triplicate sets as previously described and viable cells were counted using an automated cell counter (Bio-Rad TC20) immediately before each experiment. Compound stock solutions in DMSO (10 mM) were diluted with supplemented culture media (MDA-MB-231 cells: high glucose DMEM; HCT116 Sec61α-WT and Sec61α-G80W cells: McCoy’s (modified) 5A) to make a series of gradient fresh working solutions at equal DMSO percentage immediately prior to each test. First, […] of cells at a cell density of […] (MDA-MB-231 cells) or 2.5 × 10^4 cells/mL (Sec61α-WT or Sec61α-G80W HCT-116 cells) were seeded in black 96-well microtiter plates (Falcon, product 353219; 2500 cells/well) and incubated at 37° C for 24 h. Subsequently, the cells were treated with either […] of the freshly made gradient working solution in a total volume of […]/well (MDA-MB-231 cells) or 25 mL of freshly made gradient in a total volume of […]/well (Sec61α-WT or Sec61α-G80W HCT-116 cells) at 37 °C for 72 h. For MDA-MB-231 cells, the media were discarded and […] fresh medium containing 10% (v/v) alamarBlue HS cell viability reagent (resazurin stock solution) (ThermoFisher, Waltham, MA, USA, A50100) was added to each well. For Sec61α-WT or Sec61α-G80W HCT-116 cells, the media was not discarded and alamarBlue HS cell viability reagent (resazurin stock solution) (ThermoFisher, Waltham, MA, USA, A50100) was added to 10% (v/v). After that, all cells were incubated at 37 °C for a further 1–3 h and the emission of each well at 620 nm was detected using a Synergy H1 Hybrid multi-mode plate reader (BioTek, Agilent Technologies, Palo Alto, CA, USA) at excitation 580 nm. […] IC50 value estimates were determined using nonlinear regression to fit data to a curve of variable slope (four parameters) using the least-squares fitting method. For HCT-116 cell IC50 curves, the top and bottom plateaus were defined as 100% and 23.70% (the mean of all data at 25 µM across all compounds), respectively.

[2] = Table 1, Ii membrane integration, read-out: In Vitro Translocation Inhibition (IC50)
[3] = HCT-116, Table 1, HCT116 Sec61α-WT cells, read-out: Cytotoxicity HCT-116 Cells (IC50)
[4] = MDA-MB-231, 72 h, MDA-MB-231 cells, 72 h, read-out: IC50 (cytotoxicity)
[5] = MDA-MB-231, MDA-MB-231 cells, at least three independent experiments, read-out: IC50 ± SD, ring-open

T1 sequence (P60058 whole entry): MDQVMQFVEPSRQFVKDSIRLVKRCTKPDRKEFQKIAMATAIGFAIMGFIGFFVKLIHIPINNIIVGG
T1 sequence (P38377 2-476): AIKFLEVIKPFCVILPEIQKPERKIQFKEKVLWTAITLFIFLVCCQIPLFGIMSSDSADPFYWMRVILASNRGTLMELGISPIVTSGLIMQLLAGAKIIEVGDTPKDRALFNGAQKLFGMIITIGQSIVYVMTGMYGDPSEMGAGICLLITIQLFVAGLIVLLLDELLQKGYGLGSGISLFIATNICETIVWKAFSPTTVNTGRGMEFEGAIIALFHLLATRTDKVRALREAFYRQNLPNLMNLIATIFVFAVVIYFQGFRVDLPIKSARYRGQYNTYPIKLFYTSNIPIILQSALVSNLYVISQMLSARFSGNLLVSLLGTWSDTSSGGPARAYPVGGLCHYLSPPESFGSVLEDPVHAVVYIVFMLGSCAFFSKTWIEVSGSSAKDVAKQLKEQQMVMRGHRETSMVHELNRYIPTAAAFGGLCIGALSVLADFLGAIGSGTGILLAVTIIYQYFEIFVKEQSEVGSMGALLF
T1 sequence (P60467 2-96, further chain): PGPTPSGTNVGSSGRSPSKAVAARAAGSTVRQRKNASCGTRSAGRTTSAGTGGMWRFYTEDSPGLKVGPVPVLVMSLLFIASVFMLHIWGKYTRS

Row | SMILES | inhibition of in vitro membrane integration of Ii [1] | IC50 [1, 2] [µM] | cell death (HCT116 Sec61α-WT cells; HCT116 Sec61α-WT cells) | IC50 (HCT116 Sec61α-WT cells; [3]) [µM] | IC50 (MDA-MB-231 cells; [4]) [µM] | IC50 (MDA-MB-231 cells; [5]) [µM] | other results
1 | C/C=C(\C)C(=O)O[C@@H]1[C@@H](O)[C@@H]2O[C@H]3[C@H](O[C@@H](CCCCC)CCCCCOC(=O)CCC(=O)OC[C@@H](O2)[C@H]1OC(=O)/C=C/c1ccccc1)O[C@H](C)[C@H](OC(C)=O)[C@@H]3O [analogue 22] | efficiently, albeit variably, inhibited | 0.334 | 48–64% | 0.07 | – | – | –
2 | C=CCCCC(=O)CCC(=O)OC[C@H]1O[C@@H](O[C@H]2[C@H](O[C@H](CC=C)CCCCC)O[C@H](C)[C@H](OC(C)=O)[C@@H]2O)[C@H](O)[C@@H](OC(=O)/C(C)=C/C)[C@@H]1OC(=O)/C=C/c1ccccc1 [analogue 1] | efficiently, albeit variably, inhibited | 0.562 | 48–64% | 0.17 | ~0.06 | 0.059 ± 0.0081 | GI50 (NCI 60-cell line; NCI 60-cell line screening, average over cell lines): ~0.135 µM; loss in potency when compared to Ipom-F (NCI 60-cell line; NCI 60-cell line average GI50): 4–5 fold; loss in potency when compared to Ipom-F (MDA-MB-231 cells; MDA-MB-231 cells IC50): 9 fold
3 | C/C=C(\C)C(=O)O[C@@H]1[C@@H](O)[C@H](O[C@H]2[C@H](O[C@H](CCC)CCCCC)O[C@H](C)[C@H](OC(C)=O)[C@@H]2O)O[C@H](COC(=O)CCC(=O)CCCCC)[C@H]1OC(=O)/C=C/c1ccccc1 [analogue 2] | efficiently, albeit variably, inhibited | 0.202 | 48–64% | 0.041 | – | – | reduction in Ii membrane integration [1]: 73–86%
4 | C=CCCN(C)C(=O)CCC(=O)OCC1OC(OC2C(OC(CC=C)CCCCC)OC(C)C(OC(C)=O)C2O)C(O)C(OC(=O)C(C)=CC)C1OC(=O)C=Cc1ccccc1 (centres unmarked) [analogue 5] | efficiently, albeit variably, inhibited | 0.291 | 48–64% | 0.041 | ~0.043 | 0.043 ± 0.011 | reduction in Ii membrane integration [1]: 73–86%
5 | C/C=C(\C)C(=O)O[C@@H]1[C@@H](O)[C@@H]2O[C@H]3[C@H](O[C@@H](CCCCC)CCCCCCC(=O)CCC(=O)OC[C@@H](O2)[C@H]1OC(=O)/C=C/c1ccccc1)O[C@H](C)[C@H](OC(C)=O)[C@@H]3O [Ipom-F, ipomoeassin F] | efficiently, albeit variably, inhibited | – | 48–64% | – | – | – | GI50 (NCI 60-cell line; 60 cell): ~0.03 µM; IC50 (MDA-MB-231 cells; MDA-MB-231, 72 h, read-out: IC50 (cytotoxicity)): ~0.007 µM; IC50 (MDA-MB-231 cells; MDA-MB-231, read-out: IC50 ± SD, ring-closed): 0.0065 ± 0.0004 µM; IC50 [1]: 0.155 µM; reduction in Ii membrane integration [1]: 73–86%; IC50 (HCT116 Sec61α-WT cells; HCT-116, read-out: Cytotoxicity HCT-116 Cells (IC50)): 0.018 µM
6 | C#CCOc1ccc(C=CC(=O)OC2C(COC(=O)CCC(=O)CCCC=C)OC(OC3C(OC(CC=C)CCCCC)OC(C)C(OC(C)=O)C3O)C(O)C2OC(=O)C(C)=CC)cc1 (centres unmarked) [analogue 4] | – | – | – | – | ~0.168 | 0.168 ± 0.019 | loss in activity when compared to 1 (MDA-MB-231 cells; MDA-MB-231 cells IC50): 3–4 fold
7 | C=CCCCC(=O)CCC(=O)OCC1OC(OC2C(OC(CC=C)CCCCC)OC(C)C(OC(C)=O)C2O)C(O)C(OC(=O)C(C)=CC)C1O (centres unmarked) [analogue 12] | – | – | – | – | – | 5.6 | –
8 | C=CCCCC(=O)CCC(=O)OCC1OC(OC2C(OC(CC=C)CCCCC)OC(C)C(OC(C)=O)C2O)C(O)C(OC(=O)C(C)=CC)C1OC(=O)CCc1ccccc1 (centres unmarked) [analogue 9] | – | – | – | – | – | 2.17 | –
9 | C=CCCCCCCC(=O)OCC1OC(OC2C(OC(CC=C)CCCCC)OC(C)C(OC(C)=O)C2O)C(O)C(OC(=O)C(C)=CC)C1OC(=O)C=Cc1ccccc1 (centres unmarked) [analogue 6] | did not; also recorded: negligible inhibition | – | ~ 20% | – | ~0.205 | 0.205 ± 0.011 | loss in activity when compared to 1 (MDA-MB-231 cells; MDA-MB-231 cells IC50): 3–4 fold
10 | C=CCCCC(=O)CCC(=O)OCC1OC(OC2C(OC(CC=C)CCCCC)OC(C)C(OC(C)=O)C2O)C(O)C(OC(=O)C(C)=CC)C1OC(=O)C(C)=CC (centres unmarked) [analogue 10] | – | – | – | – | – | 2.74 | –
11 | C=CCCCC(=O)CCC(=O)OCC1OC(OC2C(OC(CC=C)CCCCC)OC(C)C(OC(C)=O)C2O)C(O)C(O)C1OC(=O)C=Cc1ccccc1 (centres unmarked) [analogue 11] | – | – | – | – | – | 6.32 | –
12 | C=CCCCC(=O)CCC(=O)OCC1OC(OC2C(OC(CC=C)CCCCC)OC(C)C(O)C2O)C(O)C(OC(=O)C(C)=CC)C1OC(=O)C=Cc1ccccc1 (centres unmarked) [analogue 7] | – | – | – | – | – | 3.89 | –
13 | C=CCCCC(=O)CCC(=O)OCC1OC(OC2C(OC(CC=C)CCCCC)OC(C)C(OC(C)=O)C2O)C(O)C(OC(=O)C(C)=CC)C1OC(=O)c1ccccc1 (centres unmarked) [analogue 8] | – | – | – | – | – | 4.61 | –
